Measurements: patent publication US20240125768A1, “METHODS FOR MODULATING A SRC-1 CONDENSATE” (ETERN BIOPHARMA (SHANGHAI) CO., LTD., priority 2021, published 2024)
“Also recorded” adds a separate entry of the source.

Assays:
YAP [1] = experiment: ChIP-qPCR of YAP association on YAP target regions; assay type: cell-based, human; details: DMSO or elvitegravir
Method: FIG. 7J illustrates the association of YAP on YAP targets regions (#1:ANKRD1enhancer, #2:PAWRpromoter, #3:NPPBpromoter, #4:CTGF promoter) were analyzed by ChIP-qPCR from cells treated with DMSO or elvitegravir. Data are representative of 3 independent experiments. Error bars indicate the s.e.m. of triplicate qPCR data.
FIG. 7K illustrates the association of YAP on YAP target regions were analyzed by ChIP-qPCR in SF268 cells treated with EVG or DMSO. Error bars show mean±s.e.m. (n=3).
Briefly, cells were crosslinked with 1% formaldehyde (Sigma) in culture medium for 10 min at room temperature, and chromatin from lysed nuclei was sheared to 200-1000 bp fragments using a Bioruptor® Pico (Diagenode SA). ˜50 μg of sheared chromatin and ˜2 μg of antibody were mixed. […] Quantitative real-time PCR was carried out with QuantStudio™ 6 Flex Real-Time PCR Systems (Thermofisher Scientific). The amount of immunoprecipitated DNA in each sample was determined as the fraction of the input, and normalized to the IgG control. […]
(§1) Chromatin immunoprecipitation antibodies are listed in Supplementary […] Supplementary Methods. […] Quantitative real-time PCR was carried out with QuantStudio™ 6 Flex Real-Time PCR Systems (Thermofisher Scientific). The amount of immunoprecipitated DNA in each sample was determined as the fraction of the input, and normalized to the IgG control.

YAP [2] = experiment: Western blotting / YAP phostag immunoblotting in SF268 cells; assay type: cell-based, human; details: 20 μM
Method: FIG. 7F illustrates SF268 cells were treated with 20 μM elvitegravir (EVG) or […] (PC) for the indicated times and subjected to western blotting analysis.
FIG. 7G illustrates SF268 cells treated with EVG or PC (fedratinib—an inhibitor of the non-receptor tyrosine kinase JAK2 which affects YAP nuclear translocation and phosphorylation) were examined by YAP phostag immunoblotting.

YAP/TEAD4 condensates = experiment: Live cell imaging of YAP/TEAD condensates; assay type: cell-based; details: H1299 cells co-transfected with YAP5SA, TEAD4-mTagBFP, mNeoGreen-SRC1; 20 μM
Method: Cells were grown on 24-well glass bottom plate (Cellvis, P24-1.5H-N) and images were taken with the Leica TCS SP8 confocal microscopy system using a 100× oil objective (NA=1.4). Cells were imaged on a heated stage(37° C.) and supplemented with warmed (37° C.) humidified air.
For compounds treatment assay, SF268 cells were co-transfected with YAP5SA, TEAD4-mTagBFP2 and mNeoGreen-SRC1. YAP variant YAP5SA which is insensitive to the upstream Hippo pathway, sequestered YAP in nucleus. To circumvent the limitations brought by red fluorescent proteins, TEAD condensates which have been reported to depend on YAP, were used to characterize YAP/TEAD transcriptional condensates. Six hours after transfection, SF268 cells were seeded on 24-well glass bottom plate (Cellvis, P24-1.5H-N) and compounds were added two hours later. Cells were imaged every 30 mins after EVG or other compounds were added.
Cells were grown on 24-well glass bottom plate (Cellvis, P24-1.5H-N) and images were taken with the Leica TCS SP8 confocal microscopy system using a 100× oil objective (NA=1.4). Cells were imaged on a heated stage (37° C.) and supplemented with warmed (37° C.) humidified air. […]
Data was analyzed by images collected from 100 representative fields in each group. The spots quantification was performed based on the number and intensity of the spots through green (mNeoGreen-SRC1) and blue (TEAD4-mTagBFP2) channel. […]

SRC-1 phase separation = target: T1, SRC-1 phase separation (Homo sapiens, UniProt Q15788); experiment: High content image of mScarlet-SRC-1 puncta in H1299 cells; assay type: cell-based; details: 20 μM
T1 construct: expressed in transfected cells; host or cells: H1299
T1 sequence (Q15788 whole entry): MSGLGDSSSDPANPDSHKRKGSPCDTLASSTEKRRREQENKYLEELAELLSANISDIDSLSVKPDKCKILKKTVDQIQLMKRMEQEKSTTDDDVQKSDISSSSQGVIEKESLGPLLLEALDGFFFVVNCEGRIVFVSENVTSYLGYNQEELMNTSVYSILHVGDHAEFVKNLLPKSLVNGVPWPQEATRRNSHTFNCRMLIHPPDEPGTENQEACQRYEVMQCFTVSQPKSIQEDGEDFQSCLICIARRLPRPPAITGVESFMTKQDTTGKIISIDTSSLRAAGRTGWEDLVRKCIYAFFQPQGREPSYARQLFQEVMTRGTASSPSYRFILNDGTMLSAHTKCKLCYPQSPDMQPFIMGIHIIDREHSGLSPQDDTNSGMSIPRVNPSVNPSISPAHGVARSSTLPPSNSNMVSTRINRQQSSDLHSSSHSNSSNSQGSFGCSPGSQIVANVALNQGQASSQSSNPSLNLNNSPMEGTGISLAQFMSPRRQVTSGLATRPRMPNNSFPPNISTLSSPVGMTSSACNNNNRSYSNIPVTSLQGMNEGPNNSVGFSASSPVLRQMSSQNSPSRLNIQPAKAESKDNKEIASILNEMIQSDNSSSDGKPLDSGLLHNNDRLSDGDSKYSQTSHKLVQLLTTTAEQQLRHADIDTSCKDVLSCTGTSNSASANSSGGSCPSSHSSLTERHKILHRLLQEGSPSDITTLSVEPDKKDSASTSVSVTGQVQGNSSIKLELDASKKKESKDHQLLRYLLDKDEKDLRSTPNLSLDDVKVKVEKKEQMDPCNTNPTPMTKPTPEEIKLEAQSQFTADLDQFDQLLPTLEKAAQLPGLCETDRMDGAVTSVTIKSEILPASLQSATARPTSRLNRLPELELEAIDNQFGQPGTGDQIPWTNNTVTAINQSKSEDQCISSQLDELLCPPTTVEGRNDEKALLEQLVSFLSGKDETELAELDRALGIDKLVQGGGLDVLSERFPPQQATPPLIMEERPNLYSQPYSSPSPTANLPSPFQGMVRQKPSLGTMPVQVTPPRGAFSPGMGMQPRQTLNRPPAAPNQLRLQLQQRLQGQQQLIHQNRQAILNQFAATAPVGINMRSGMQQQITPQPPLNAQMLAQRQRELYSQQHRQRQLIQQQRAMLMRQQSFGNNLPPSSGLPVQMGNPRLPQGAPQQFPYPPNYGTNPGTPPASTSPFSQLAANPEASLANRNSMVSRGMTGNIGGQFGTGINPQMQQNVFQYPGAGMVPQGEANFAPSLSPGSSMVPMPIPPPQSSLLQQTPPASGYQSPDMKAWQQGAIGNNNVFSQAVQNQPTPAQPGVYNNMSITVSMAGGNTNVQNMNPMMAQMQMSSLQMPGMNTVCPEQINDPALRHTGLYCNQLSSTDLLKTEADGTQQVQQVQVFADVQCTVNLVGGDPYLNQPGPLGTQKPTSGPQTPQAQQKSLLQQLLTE
Method: FIG. 7Q illustrates quantification result of high content image data for mScarlet-SRC-1 puncta in H1299 cells treated w/o 20 μM EVG. ***p<0.001.
Eight hours after transfection, H1299 cells expressing mScarlet-SRC-1 were seeded in 24-well glass bottom plate (Cellvis P24-1.5H-N) and EVG was added two hours later. Images were obtained with the Operetta CLSTM high-content cell imaging analysis system (PerkinElmer Inc., Waltham, MA, USA). The 63× objective lens was applied in each condition. Data was analyzed by images collected from over 100 representative fields in each group. The spots quantification was performed based on the area and intensity of the spots through mScarlet channel. GraphPad Prism is used to plot and analyze the high content image results.

H3K27ac = experiment: ChIP-qPCR of histone modifications at YAP target regions; assay type: cell-based, human; details: SF268 cells
Method: FIG. 7L illustrates analysis of indicated histone modifications at YAP targets regions #1 from SF268 cells treated with DMSO or EVG by ChIP-qPCR. Error bars show mean±s.e.m. (n=3), *p<0.05, ***p<0.001
Briefly, cells were crosslinked with 1% formaldehyde (Sigma) in culture medium for 10 min at room temperature, and chromatin from lysed nuclei was sheared to 200-1000 bp fragments using a Bioruptor® Pico (Diagenode SA). ˜50 μg of sheared chromatin and ˜2 μg of antibody were mixed. Antibody/antigen complexes were recovered with ProteinG-Dynabeads (Invitrogen) for 1.5 h at 4° C. Quantitative real-time PCR was carried out with QuantStudio™ 6 Flex Real-Time PCR Systems (Thermofisher Scientific). The amount of immunoprecipitated DNA in each sample was determined as the fraction of the input, and normalized to the IgG control. PCR Primers are listed in Supplementary Table S2.
as §1

YAP target genes = experiment: RNA-seq global gene expression profiles in SF268 cells; assay type: cell-based, human; details: 20 μM, 24 h
Method: FIG. 7E illustrates SF268 cells treated with EVG were subjected to RNA-seq analysis. GSEA enrichment plots of genes involved in Hippo/YAP signaling.
Total RNA of three biological replicates was extracted from SF268 cells 24 h after treated with 20 μM EVG/DMSO using TRIzol™ Reagent (15596018, Invitrogen). RNAseq libraries were prepared using the Illumina TruSeq RNA Sample Prep kit v2 and sequenced using the Illumina HiSeq Xten platform (150-bp paired-end reads). We mapped the RNA-seq sequencing reads to the human reference transcriptome (GRCh37.71) using HISAT259 version 2.0.1. Differentially expressed genes in elvitegravir-treatment group were identified with the R package DESeq.

COc1cc2c(cc1Cc1cccc(Cl)c1F)c(=O)c(C(=O)O)cn2[C@H](CO)C(C)C [EVG, 6-[(3-chloro-2-fluorophenyl)methyl]-1-[(2S)-1-hydroxy-3-methylbutan-2-yl]-7-methoxy-4-oxoquinoline-3-carboxylic acid]
access of YAP to target genes (association of YAP on YAP target regions) (YAP [1]): excluding the possibility that EVG may block the access of YAP to target genes | phosphorylation pattern in YAP (YAP [2]): unaffected | YAP/TEAD condensates (YAP/TEAD4 condensates): remained intact; also recorded: but not the YAP/TEAD4 condensates | SRC-1 phase separation, high content image (mScarlet-SRC-1 puncta) (SRC-1 phase separation): inhibitory effects | H3K27ac mark levels at YAP target genes (H3K27ac): reducing | YAP target genes, global gene expression profiles (YAP target genes): downregulates
